We go through ten molecules from publication PMC12130509, “Development of a small compound that regulates the function of a maltodextrin-binding protein of Streptococcus pyogenes by multifaceted screenings” (Scientific Reports, 2025).

The target in data set [1] is T1, SPs0871 (Streptococcus pyogenes, UniProt A0A0H2UUQ6). Kind of data set: MST binding analysis. As to conditions: for concentration-dependent response by MST: 15.3 nM to 500 µM compound; for concentration-dependent response by MST / Kd: 100 nM SPs0871; for Kd: read-out: KD values calculated by MST analysis. As to the method: (§1) MST was performed on a Monolith NT.115 instrument using Monolith NT.115 Series, Premium Capillaries, and His-tagged SPs0871 was labeled using the Monolith His-Tag Labeling Kit RED-Tris-NTA 2nd Generation (NanoTemper Technologies GmbH, Munich, Germany). The final concentration of SPs0871 was 100 nM, and the final concentration of the dye was 5 nM. The buffer was PBS-T (PBS, 0.005% Tween 20), 5% DMSO. A range of concentrations of compounds (15.3 nM to 500 µM) was tested.

Data set [2] addresses T1, SPs0871. Kind of data set: SPR analysis of binding to immobilized SPs0871 (Biacore T200). As to conditions: for concentration-dependent response by SPR (derivatives, cross-validation): 3.125–200 µM. As to the method:
The binding of maltotriose and compound derivatives to SPs0871 was assessed using a Biacore T200 instrument (Cytiva, Marlborough, MA, USA). SPs0871 was immobilized at 4300–4700 RU on the surface of a CM5 sensor chip (Cytiva) by the amine-coupling method according to the manufacturer’s instructions. The running buffer was phosphate buffered saline with Tween (PBS, 0.005% Tween 20), 5% DMSO. To measure the interaction of maltotriose with SPs0871, a range of concentrations of maltotriose (0.039–20 µM) were injected at a flow rate of 30 μL min^–1 with a 20 s association time and a 40 s dissociation time. To measure the interaction of compound derivatives with SPs0871, a range of concentrations of compound derivatives (3.125–200 µM) were injected at a flow rate of 30 μL min^–1 with a 20 s association time and a 40 s dissociation time. Data analysis was carried out using BIAevaluation software (Cytiva, version ver3.2.1, https://www.cytivalifesciences.com/ja/jp/support/software/biacore-downloads?_gl=1*18vz87l*_gcl_au*MjA3MjI1ODE4Ni4xNzQyOTU1NzY3*_ga*OTQ5NDM5MTMyLjE3NDI5NTU3Njg.*_ga_CS9H0CZBWW*MTc0NDQ0NjkwMy41LjEuMTc0NDQ0ODAwNC4wLjAuMA.). The KDs of the interactions were calculated from Scatchard plots.
In general terms: In SPR one partner is held on a chip, and binding of the other changes the refractive index at the surface.

In the next data set the test system is S. pyogenes strain JRS4. Kind of data set: Growth assay in CDM supplemented with maltotetraose, JRS4. The format is cell-based, Streptococcus pyogenes. As to conditions: for GAS growth: 0.5% maltotetraose, 1% DMSO, OD600. As for the experimental part:
(§2) Bacteria were incubated in a carbohydrate-free chemically defined medium (CDM) supplemented with maltotetraose, which is thought to be taken up only via the SPs0871 pathway. […] Further, we also evaluated the antibacterial effect of 95,186 against SSI-1 strain, which is isolated from a STSS patient.
(§3) JRS4 and SSI-1 were used as GAS strains. The medium used as well as the procedure up to the assay were the same as previously described. […] For SSI-1, an additional 0.1% glucose was added to the CDM medium containing maltotetraose. To confirm the bacteriostatic effect of compound 95,186, the bacterial culture incubated in CDM was inoculated into THY medium to achieve a final OD600 value of 0.01.

The subject of the next data set is MalE1. The experiment in a line: MST analysis of bacterial species specificity. The format is binding, L. casei.
Source text: Finally, to gain an insight into the specificity of the three compounds for bacterial species, we prepared MalE1 from L. casei as a recombinant protein and used MST to assess the binding of compounds 95,186, 95186b, and 95186c to MalE1.
(§4) The SPs0871 (including mutants) gene fragment encoding amino acids 27–415 was cloned into Escherichia coli expression vector pCold I (for MST) or pCold SUMO, in which the His6-SUMO-tag was introduced into the pCold I vector (Takara, Shiga, Japan). The same process was performed for MalE1 derived from the L. casei gene fragment encoding amino acids 28–410. The recombinant protein was expressed and purified as previously described.
as §1

The test system of data set [3] is SPs0871 mutants (E146, K294, W256 mutated to alanine). The experiment in a line: MST binding to recombinant SPs0871 alanine mutants. On the set-up: species or system Streptococcus pyogenes.
Source text: To assess whether 95,186 competes with the natural ligand maltotriose in binding to SPs0871, we conducted MST analysis in the presence or absence of maltotriose. […] When we performed additional docking calculations using the Glide docking program (Schrodinger, New York, NY, USA) to identify hotspot residues for the compound binding, E146 and K294 were predicted to form hydrogen bonds and W256 was predicted to form van der Waals interactions during compound binding (Fig. 4B,C). We validated these predictions using recombinant SPs0871 mutants in which these residues were mutated to alanine.
as §4
MST was performed on a Monolith NT.115 instrument using Monolith NT.115 Series, Premium Capillaries, and His-tagged SPs0871 was labeled using the Monolith His-Tag Labeling Kit RED-Tris-NTA 2nd Generation (NanoTemper Technologies GmbH, Munich, Germany). The final concentration of SPs0871 was 100 nM, and the final concentration of the dye was 5 nM. […]

The target in data set [4] is T1, SPs0871. Kind of data set: DSF, melting temperature of SPs0871. The format is binding. The text has this:
In the subsequent DSF screening, we measured the Tm value of SPs0871 in the presence of each compound. We also evaluated the structural stabilizing effect of each compound by binding it to SPs0871, which reflected the binding of the compound in the ligand binding pocket and the intramolecular interaction network. We included SPs0871 without small compounds as a negative control in each screening plate. The difference between the Tm value for each compound and the highest negative control Tm value in the same plate was used as the activity value for each compound.
DSF was performed on a CFX Connect Real-Time System (Bio-Rad, Hercules, CA, USA). The buffer was 1 × PBS, 5% DMSO except an experiment to assess the change of Tm value in a sugar concentration-dependent manner (Figure S1), in which DMSO was not added into the buffer. In the initial screening, the final concentration of the compounds was 100 µM and the concentration of SPs0871 was a 2 μM. One thousandth of the sample volume of SYPRO Orange Protein Gel Stain (5000 × concentrated in DMSO; Invitrogen, Waltham, MA, USA) was added, and samples containing 5 × SYPRO Orange were loaded onto 96-well PCR Plates (Bio-Rad) for measurement. The denaturation of protein was observed via fluorescence emitted from SYPRO Orange upon absorption to the exposed hydrophobic surface.

The subject of a further data set is SSI-1 strain. The experiment in a line: Growth assay in CDM medium, SSI-1. It is filed as cell-based, Streptococcus pyogenes. As to conditions: 100 µM compound, 0.5% maltotetraose plus 0.1% glucose. As for the experimental part:
as §2, §3

Data set [5] addresses T1, SPs0871. The experiment in a line: SPR screening of direct binding to SPs0871 (Biacore 8K). The text has this:
In parallel, we conducted SPR screening to evaluate the direct binding of compounds to SPs0871. We immobilized SPs0871 on a sensor chip, flowed each compound to the chip in sequence, and evaluated the response for each compound. The response derived from maltotriose binding was designated as the positive control, with a relative value 100, and the response derived from the injection of running buffer was designated as the negative control, with a relative value 0. The molecular weight corrected value for each compound was used as the activity value.
Direct binding of compounds to SPs0871 was examined using a Biacore 8 K instrument (Cytiva). SPs0871 was immobilized at 3500–5300 RU on the surface of a CM5 sensor chip (Cytiva) by the amine-coupling method according to the manufacturer’s instructions. The running buffer was PBS-T (PBS, 0.005% Tween 20), 5% DMSO. In the screening, the final concentration of each compound was 100 µM, and samples were injected at a flow rate of 30 μL min^–1 with a 30 s association time. To check the concentration dependency, a range of concentrations of the compounds (3.125–50 µM) were injected at a flow rate of 30 μL min^–1 with a 20 s association time and a 30 s dissociation time. […]

T1 sequence (A0A0H2UUQ6 entry or part of it): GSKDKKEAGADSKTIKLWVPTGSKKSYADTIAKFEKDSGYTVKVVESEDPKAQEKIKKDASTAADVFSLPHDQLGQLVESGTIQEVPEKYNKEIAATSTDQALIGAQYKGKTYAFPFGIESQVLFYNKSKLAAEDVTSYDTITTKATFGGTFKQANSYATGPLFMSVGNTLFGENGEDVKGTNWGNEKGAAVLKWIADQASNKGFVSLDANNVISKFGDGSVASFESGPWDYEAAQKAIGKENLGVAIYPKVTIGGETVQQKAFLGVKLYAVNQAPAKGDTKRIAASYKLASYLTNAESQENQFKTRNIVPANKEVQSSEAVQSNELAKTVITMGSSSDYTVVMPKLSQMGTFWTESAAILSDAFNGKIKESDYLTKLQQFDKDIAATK

`Cc1ccc(-c2nnc3c4ccccc4c(C)nn23)cc1NC(=O)CN1CCCCC1` [95186a]: the “concentration-dependent response by MST” value at SPs0871 [1] is “no change”.

On to `Cc1nn2c(-c3cccc(NC(=O)CN4CCOCC4)c3)nnc2c2ccccc12` [95186b], for which, at SPs0871 [2], the “concentration-dependent response by SPR (derivatives, cross-validation)” value is listed as “observed concentration-dependent responses”. For the same molecule, the GAS growth result in the data set on S. pyogenes strain JRS4 (100 µM compound) was “suppressed GAS growth”. The “concentration-dependent response changes by MST with MalE1” value (shortened to “concentration-dependent response changes”) in the data set on MalE1 is listed as “No concentration-dependent response changes were detected”. For the same molecule, at SPs0871 [1], the “concentration-dependent response by MST” value is “concentration-dependent response change” and the equilibrium dissociation constant (Kd) (as a rule, the equilibrium constant for the complex coming apart) is 67.1 µM.

As to `CCC(=O)Nc1cccc(-c2nnc3c4ccccc4c(C)nn23)c1` [95186c], the “concentration-dependent response by SPR (derivatives, cross-validation)” value at SPs0871 [2] is “observed concentration-dependent responses”. In addition, in the data set with S. pyogenes strain JRS4 (100 µM compound), the GAS growth result was “suppressed GAS growth”. Further, the “concentration-dependent response changes” value in the data set on MalE1 is “No concentration-dependent response changes were detected”. Moreover, on SPs0871 [1], the “concentration-dependent response by MST” value was “concentration-dependent response change” and the dissociation constant (Kd) is 71.7 µM.

As for `Cc1nn2c(-c3cccc(NC(=O)c4ccco4)c3)nnc2c2ccccc12` [95186d], in the data set with S. pyogenes strain JRS4 (100 µM in CDM with maltotetraose), the “initial optical density at 600 nm (OD600) values” was “high because of aggregation of the compounds in the medium as well as bacterial growth”. The “concentration-dependent response by MST” value at SPs0871 [1] is “concentration-dependent response change”.

On to `Cc1nn2c(-c3cccc(NC(=O)c4ccccc4)c3)nnc2c2ccccc12` [95186e], for which the “concentration-dependent response by MST” value on SPs0871 [1] was “no change”.

On to `Cc1nn2c(-c3cccc(NC(=O)COc4ccccc4)c3)nnc2c2ccccc12` [95186f], for which, at SPs0871 [1], the “concentration-dependent response by MST” value was “no change”.

On to `Cc1nn2c(-c3cccc(NC(=O)CSc4nc5ccccc5o4)c3)nnc2c2ccccc12` [95186g], for which the “concentration-dependent response by MST” value on SPs0871 [1] is “no change”.

For `O=C(CN1CCCCC1)Nc1cccc(C(=O)Nc2cccc(C(F)(F)F)c2)c1` [95186h], the “concentration-dependent response by MST” value at SPs0871 [1] is “no change”.

As to `Cc1nn2c(-c3cccc(NC(=O)CN4CCCCC4)c3)nnc2c2ccccc12` [compound 95186], in data set [3], the “MST response change upon binding to SPs0871 alanine mutants” value was “Only the W256A mutation attenuated the response change upon the binding”. In addition, the ΔTm at 100 µM at SPs0871 [4] (100 µM compound, 2 µM SPs0871, hit criterion > 0.4 °C, read-out: DSF activity value (Tm with compound minus highest negative control Tm in the same plate)) came out at 0.6 °C. Further, in the data set with S. pyogenes strain JRS4 (100 µM compound), the “growth inhibition potential compared among compounds” value was “highest growth inhibition potential” and the GAS growth entry is on record as “suppressed GAS growth”. Besides, the “concentration dependence of growth suppression” value in the data set on S. pyogenes strain JRS4 (JRS4, maltotetraose medium) is given as “concentration dependent above the KD value concentration”. In the data set with S. pyogenes strain JRS4 (JRS4 exposed to compound transferred into THY medium, final OD600 0.01), the “bactericidal or bacteriostatic effect” value was “bacteriostatic action”. In addition, in the data set on MalE1, the “concentration-dependent response changes” value is “No concentration-dependent response changes were detected”. Also, in the data set on SSI-1 strain, the “maltodextrin dependent growth of SSI-1” value was “suppressed the maltodexitrin dependent growth of SSI-1”. In addition, the “SPR activity value (molecular weight corrected relative response)” value on SPs0871 [5] (100 µM compound, maltotriose response = 100, running buffer = 0, hit criterion ≥ 60) amounted to 162. Besides, at SPs0871 [5] (3.125–50 µM, three independent experiments), the “concentration dependence of the binding by SPR” value is given as “concentration-dependent increase in response was reproducibly observed”. At SPs0871 [1], the “concentration-dependent response by MST” value was “showed a concentration-dependent response” and the Kd was 44.7 µM. At SPs0871 [1] (60 µM maltotriose), the “MST response in the presence of maltotriose (competition)” value is “concentration-dependent response disappeared”.

With maltotriose [reference compound], the Kd is 0.61 µM at SPs0871 [2] (maltotriose 0.039–20 µM, calculated from Scatchard plots, read-out: dissociation constant (KD) by SPR) and 6.2 µM at SPs0871 [1]. On SPs0871 [4] (DSF, 10 µM maltotriose), the “increase of the melting temperature of SPs0871” value was 1.2 °C.
